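Results reflect a 48-hour exposure of cells in 96-well plates to compound at five concentrations. Definition used: TGI = concentration required for complete inhibition of growth.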
Legend:
Experiment in all cases: NCI anticancer screen, dose series, 48 h
DU-145 prostate = tested on: DU-145 prostate
786-0 renal = tested on: 786-0 renal
IGROV1 ovarian = tested on: IGROV1 ovarian
MDA-MB-231 breast = tested on: MDA-MB-231 breast
SN12C renal = tested on: SN12C renal
RXF 393 renal = tested on: RXF 393 renal
UACC-257 melanoma = tested on: UACC-257 melanoma
T-47D breast = tested on: T-47D breast
NCI-H460 lung = tested on: NCI-H460 lung
SR leukemia = tested on: SR leukemia
MDA-N = tested on: MDA-N
NCI-H23 lung = tested on: NCI-H23 lung
MALME-3M melanoma = tested on: MALME-3M melanoma
SK-OV-3 ovarian = tested on: SK-OV-3 ovarian
NCI-H522 lung = tested on: NCI-H522 lung
KM12 colon = tested on: KM12 colon
MCF7 breast = tested on: MCF7 breast
HOP-62 NSCLC = tested on: HOP-62 NSCLC
MOLT-4 leukemia = tested on: MOLT-4 leukemia
COLO 205 colon = tested on: COLO 205 colon
K-562 leukemia = tested on: K-562 leukemia
SNB-75 CNS = tested on: SNB-75 CNS
CAKI-1 renal = tested on: CAKI-1 renal
NCI/ADR-RES ovarian = tested on: NCI/ADR-RES ovarian
MDA-MB-435 = tested on: MDA-MB-435
UACC-62 melanoma = tested on: UACC-62 melanoma
SW-620 colon = tested on: SW-620 colon
SNB-19 CNS = tested on: SNB-19 CNS
NCI-H226 lung = tested on: NCI-H226 lung
PC-3 prostate = tested on: PC-3 prostate
A549 NSCLC = tested on: A549 NSCLC
M14 melanoma = tested on: M14 melanoma
RPMI-8226 leukemia = tested on: RPMI-8226 leukemia
HCT-15 colon = tested on: HCT-15 colon
SK-MEL-28 melanoma = tested on: SK-MEL-28 melanoma
BT-549 breast = tested on: BT-549 breast
LOX IMVI melanoma = tested on: LOX IMVI melanoma
SF-295 CNS = tested on: SF-295 CNS
HT29 colon = tested on: HT29 colon
HL-60(TB) leukemia = tested on: HL-60(TB) leukemia
HCC-2998 colon = tested on: HCC-2998 colon
OVCAR-4 ovarian = tested on: OVCAR-4 ovarian
EKVX NSCLC = tested on: EKVX NSCLC
OVCAR-8 ovarian = tested on: OVCAR-8 ovarian
CCRF-CEM leukemia = tested on: CCRF-CEM leukemia
ACHN renal = tested on: ACHN renal
HOP-92 NSCLC = tested on: HOP-92 NSCLC
UO-31 renal = tested on: UO-31 renal
SK-MEL-5 melanoma = tested on: SK-MEL-5 melanoma
TK-10 renal = tested on: TK-10 renal
SF-268 CNS = tested on: SF-268 CNS
U251 CNS = tested on: U251 CNS
OVCAR-3 ovarian = tested on: OVCAR-3 ovarian
HCT-116 colon = tested on: HCT-116 colon
OVCAR-5 ovarian = tested on: OVCAR-5 ovarian
SF-539 CNS = tested on: SF-539 CNS
A498 renal = tested on: A498 renal

CC(C)(C)C1=NC(=S)SC2=NC(=O)C3(NN21)c1ccccc1-c1ccccc13
TGI (DU-145 prostate): > 10 µM
TGI (786-0 renal): > 10 µM
TGI (IGROV1 ovarian): > 10 µM
TGI (MDA-MB-231 breast): > 10 µM
TGI (SN12C renal): > 10 µM
TGI (RXF 393 renal): > 10 µM
TGI (UACC-257 melanoma): > 10 µM
TGI (T-47D breast): > 10 µM
TGI (NCI-H460 lung): > 10 µM
TGI (SR leukemia): > 10 µM
TGI (MDA-N): > 10 µM
TGI (NCI-H23 lung): > 10 µM
TGI (MALME-3M melanoma): > 10 µM
TGI (SK-OV-3 ovarian): > 10 µM
TGI (NCI-H522 lung): > 10 µM
TGI (KM12 colon): > 10 µM
TGI (MCF7 breast): > 10 µM
TGI (HOP-62 NSCLC): > 10 µM
TGI (MOLT-4 leukemia): > 10 µM
TGI (COLO 205 colon): > 10 µM
TGI (K-562 leukemia): > 10 µM
TGI (SNB-75 CNS): > 10 µM
TGI (CAKI-1 renal): > 10 µM
TGI (NCI/ADR-RES ovarian): > 10 µM
TGI (MDA-MB-435): > 10 µM
TGI (UACC-62 melanoma): > 10 µM
TGI (SW-620 colon): > 10 µM
TGI (SNB-19 CNS): > 10 µM
TGI (NCI-H226 lung): > 10 µM
TGI (PC-3 prostate): > 10 µM
TGI (A549 NSCLC): > 10 µM
TGI (M14 melanoma): > 10 µM
TGI (RPMI-8226 leukemia): > 10 µM
TGI (HCT-15 colon): > 10 µM
TGI (SK-MEL-28 melanoma): > 10 µM
TGI (BT-549 breast): > 10 µM
TGI (LOX IMVI melanoma): > 10 µM
TGI (SF-295 CNS): > 10 µM
TGI (HT29 colon): > 10 µM
TGI (HL-60(TB) leukemia): > 10 µM
TGI (HCC-2998 colon): > 10 µM
TGI (OVCAR-4 ovarian): > 10 µM
TGI (EKVX NSCLC): > 10 µM
TGI (OVCAR-8 ovarian): > 10 µM
TGI (CCRF-CEM leukemia): > 10 µM
TGI (ACHN renal): > 10 µM
TGI (HOP-92 NSCLC): > 10 µM
TGI (UO-31 renal): > 10 µM
TGI (SK-MEL-5 melanoma): > 10 µM
TGI (TK-10 renal): > 10 µM
TGI (SF-268 CNS): > 10 µM

N#Cc1ccsc1Nc1ccccc1[N+](=O)[O-]
TGI (DU-145 prostate): > 100 µM
TGI (786-0 renal): > 100 µM
TGI (IGROV1 ovarian): > 100 µM
TGI (MDA-MB-231 breast): > 100 µM
TGI (SN12C renal): > 100 µM
TGI (U251 CNS): > 100 µM
TGI (RXF 393 renal): > 100 µM
TGI (UACC-257 melanoma): > 100 µM
TGI (T-47D breast): > 100 µM
TGI (NCI-H460 lung): > 100 µM
TGI (OVCAR-3 ovarian): > 100 µM
TGI (SR leukemia): > 100 µM
TGI (MDA-N): > 100 µM
TGI (NCI-H23 lung): > 100 µM
TGI (MALME-3M melanoma): > 100 µM
TGI (SK-OV-3 ovarian): > 100 µM
TGI (NCI-H522 lung): > 100 µM
TGI (KM12 colon): > 100 µM
TGI (MCF7 breast): > 100 µM
TGI (HOP-62 NSCLC): > 100 µM
TGI (MOLT-4 leukemia): > 100 µM
TGI (COLO 205 colon): > 100 µM
TGI (K-562 leukemia): > 100 µM
TGI (SNB-75 CNS): > 100 µM
TGI (CAKI-1 renal): > 100 µM
TGI (HCT-116 colon): > 100 µM
TGI (NCI/ADR-RES ovarian): > 100 µM
TGI (MDA-MB-435): > 100 µM
TGI (UACC-62 melanoma): > 100 µM
TGI (OVCAR-5 ovarian): > 100 µM
TGI (SW-620 colon): > 100 µM
TGI (SNB-19 CNS): > 100 µM
TGI (NCI-H226 lung): > 100 µM
TGI (PC-3 prostate): > 100 µM
TGI (A549 NSCLC): > 100 µM
TGI (M14 melanoma): > 100 µM
TGI (RPMI-8226 leukemia): > 100 µM
TGI (HCT-15 colon): > 100 µM
TGI (SK-MEL-28 melanoma): > 100 µM
TGI (BT-549 breast): > 100 µM
TGI (SF-539 CNS): > 100 µM
TGI (SF-295 CNS): > 100 µM
TGI (HCC-2998 colon): > 100 µM
TGI (A498 renal): > 100 µM
TGI (OVCAR-4 ovarian): > 100 µM
TGI (EKVX NSCLC): > 100 µM
TGI (OVCAR-8 ovarian): > 100 µM
TGI (CCRF-CEM leukemia): > 100 µM
TGI (ACHN renal): > 100 µM
TGI (HOP-92 NSCLC): > 100 µM
TGI (UO-31 renal): > 100 µM
TGI (SF-268 CNS): > 100 µM

CC(=O)/C=C/CCC(=O)/C=C/C(=O)OC(CCC(=O)/C=C/C(=O)O)CC(C)=O (centres undefined)
TGI (DU-145 prostate): > 100 µM
TGI (786-0 renal): > 100 µM
TGI (IGROV1 ovarian): > 100 µM
TGI (MDA-MB-231 breast): > 100 µM
TGI (SN12C renal): > 100 µM
TGI (U251 CNS): > 100 µM
TGI (RXF 393 renal): > 100 µM
TGI (UACC-257 melanoma): > 100 µM
TGI (T-47D breast): > 100 µM
TGI (NCI-H460 lung): > 100 µM
TGI (OVCAR-3 ovarian): > 100 µM
TGI (SR leukemia): > 100 µM
TGI (MDA-N): > 100 µM
TGI (NCI-H23 lung): > 100 µM
TGI (MALME-3M melanoma): > 100 µM
TGI (NCI-H522 lung): > 100 µM
TGI (KM12 colon): > 100 µM
TGI (MCF7 breast): > 100 µM
TGI (HOP-62 NSCLC): > 100 µM
TGI (MOLT-4 leukemia): > 100 µM
TGI (COLO 205 colon): > 100 µM
TGI (K-562 leukemia): > 100 µM
TGI (HCT-116 colon): > 100 µM
TGI (NCI/ADR-RES ovarian): > 100 µM
TGI (MDA-MB-435): > 100 µM
TGI (UACC-62 melanoma): > 100 µM
TGI (OVCAR-5 ovarian): > 100 µM
TGI (SW-620 colon): > 100 µM
TGI (SNB-19 CNS): > 100 µM
TGI (NCI-H226 lung): > 100 µM
TGI (PC-3 prostate): > 100 µM
TGI (A549 NSCLC): > 100 µM
TGI (M14 melanoma): > 100 µM
TGI (RPMI-8226 leukemia): > 100 µM
TGI (HCT-15 colon): > 100 µM
TGI (SK-MEL-28 melanoma): > 100 µM
TGI (BT-549 breast): > 100 µM
TGI (SF-539 CNS): > 100 µM
TGI (SF-295 CNS): > 100 µM
TGI (HT29 colon): > 100 µM
TGI (HL-60(TB) leukemia): > 100 µM
TGI (HCC-2998 colon): > 100 µM
TGI (OVCAR-4 ovarian): > 100 µM
TGI (EKVX NSCLC): > 100 µM
TGI (OVCAR-8 ovarian): > 100 µM
TGI (CCRF-CEM leukemia): > 100 µM
TGI (ACHN renal): > 100 µM
TGI (HOP-92 NSCLC): > 100 µM
TGI (SK-MEL-5 melanoma): > 100 µM
TGI (TK-10 renal): > 100 µM
TGI (SF-268 CNS): > 100 µM
